Reference: ChEMBL document CHEMBL1155889, “Structure-activity relationship studies on vitamin D lactam derivatives as vitamin D receptor antagonist” (Bioorg Med Chem Lett, 2008)
Active and inactive are the calls of the source. The calls are words filed in the database; no cut-off is given here.

Legend:
[1] = biological target: T1, Vitamin D3 receptor (Gallus gallus) (UniProt O42392); test: Displacement of [3H]1,25-(OH)2-D3 from chick intestinal VDR relative to 1,25-(OH)2-D3
T1 sequence (whole entry): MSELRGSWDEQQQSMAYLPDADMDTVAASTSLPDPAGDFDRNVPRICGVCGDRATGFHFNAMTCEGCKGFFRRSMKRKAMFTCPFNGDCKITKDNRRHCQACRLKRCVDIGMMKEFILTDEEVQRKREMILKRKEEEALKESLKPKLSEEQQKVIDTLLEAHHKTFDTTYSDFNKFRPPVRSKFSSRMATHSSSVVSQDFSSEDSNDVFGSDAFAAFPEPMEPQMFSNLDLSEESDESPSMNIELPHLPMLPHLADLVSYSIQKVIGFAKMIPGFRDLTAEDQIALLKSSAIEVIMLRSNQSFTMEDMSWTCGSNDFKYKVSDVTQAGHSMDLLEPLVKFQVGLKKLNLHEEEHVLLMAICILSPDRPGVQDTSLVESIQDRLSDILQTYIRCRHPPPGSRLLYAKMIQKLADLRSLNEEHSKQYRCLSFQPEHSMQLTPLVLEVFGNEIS

[2] = biological target: T2, Vitamin D3 receptor (Homo sapiens) (UniProt P11473); test: Antagonist activity at VDR in human HL60 cells assessed as effect on 1,25-(OH)2-D3-induced cell differentiation at 3 uM by NBT assay; format: functional, cell-based; settings: HL-60
T2 sequence (whole entry): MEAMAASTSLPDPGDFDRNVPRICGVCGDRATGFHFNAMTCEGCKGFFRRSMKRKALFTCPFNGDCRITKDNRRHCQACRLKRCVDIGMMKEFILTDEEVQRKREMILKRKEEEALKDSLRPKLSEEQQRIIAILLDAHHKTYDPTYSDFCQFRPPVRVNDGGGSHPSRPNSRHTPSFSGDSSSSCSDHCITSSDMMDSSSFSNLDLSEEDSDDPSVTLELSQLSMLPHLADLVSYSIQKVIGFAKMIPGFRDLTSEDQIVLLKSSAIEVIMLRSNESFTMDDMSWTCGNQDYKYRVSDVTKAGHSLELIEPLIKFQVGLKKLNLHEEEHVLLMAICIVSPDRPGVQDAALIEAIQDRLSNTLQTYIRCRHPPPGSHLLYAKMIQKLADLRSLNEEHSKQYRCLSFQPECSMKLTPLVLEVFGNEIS

[3] = biological target: T2, Vitamin D3 receptor (Homo sapiens); test: Antagonist activity at VDR in human HL60 cells assessed as effect on 1,25-(OH)2-D3-induced cell differentiation at 1 uM by NBT assay; format: functional, cell-based; settings: HL-60
[4] = biological target: T2, Vitamin D3 receptor (Homo sapiens); test: Agonist activity at human VDR expressed in monkey COS7 cells at <10 uM by luciferase reporter gene assay; format: functional, cell-based; settings: COS-7

Structure (SMILES) | relative binding affinity (RBA) [1] | Activity [2] | Activity [3] | Activity [4]
C=C1/C(=C\C=C2/CCC[C@]3(C)[C@@H]([C@H](C)C[C@H]4C[C@](C)(O)C(=O)N4Cc4cc(OCCCC)cc(OCCCC)c4)CC[C@@H]23)C[C@@H](O)C[C@@H]1O | 18.2 |  |  | 
C=C1/C(=C\C=C2/CCC[C@]3(C)[C@@H]([C@H](C)C[C@H]4C[C@](C)(O)C(=O)N4CCc4cc(OC)cc(OC)c4)CC[C@@H]23)C[C@@H](O)C[C@@H]1O | 12 |  |  | 
C=C1/C(=C\C=C2/CCC[C@]3(C)[C@@H]([C@H](C)C[C@@H]4C[C@@](C)(O)C(=O)N4Cc4cc(C(F)(F)F)cc(C(F)(F)F)c4)CC[C@@H]23)C[C@@H](O)C[C@@H]1O | < 1520 | inactive |  | 
C=C1/C(=C\C=C2/CCC[C@]3(C)[C@@H]([C@H](C)C[C@@H]4C[C@](C)(O)C(=O)N4CCc4cc(OC)cc(OC)c4)CC[C@@H]23)C[C@@H](O)C[C@@H]1O | < 1520 |  | inactive | 
C=C1/C(=C\C=C2/CCC[C@]3(C)[C@@H]([C@H](C)C[C@H]4C[C@@](C)(O)C(=O)N4CCCc4cc(C(F)(F)F)cc(C(F)(F)F)c4)CC[C@@H]23)C[C@@H](O)C[C@@H]1O | < 5400 |  | inactive | 
C=C1/C(=C\C=C2/CCC[C@]3(C)[C@@H]([C@H](C)C[C@@H]4C[C@@](C)(O)C(=O)N4CCCc4cc(C(F)(F)F)cc(C(F)(F)F)c4)CC[C@@H]23)C[C@@H](O)C[C@@H]1O | < 5400 |  | inactive | 
C=C1/C(=C\C=C2/CCC[C@]3(C)[C@@H]([C@H](C)C[C@H]4C[C@](C)(O)C(=O)N4Cc4cc(OCC)cc(OCC)c4)CC[C@@H]23)C[C@@H](O)C[C@@H]1O | 3.5 |  |  | 
C=C1/C(=C\C=C2/CCC[C@]3(C)[C@@H]([C@H](C)C[C@H]4C[C@](C)(O)C(=O)N4CCc4ccccc4)CC[C@@H]23)C[C@@H](O)C[C@@H]1O | 12.5 |  |  | 
C=C1/C(=C\C=C2/CCC[C@]3(C)[C@@H]([C@H](C)C[C@@H]4C[C@@](C)(O)C(=O)N4Cc4cc(OC)cc(OC)c4)CC[C@@H]23)C[C@@H](O)C[C@@H]1O | 185 |  |  | 
C=C1/C(=C\C=C2/CCC[C@]3(C)[C@@H]([C@H](C)C[C@@H]4C[C@@](C)(O)C(=O)N4CCc4cc(C(F)(F)F)cc(C(F)(F)F)c4)CC[C@@H]23)C[C@@H](O)C[C@@H]1O | 236 | inactive |  | 
C=C1/C(=C\C=C2/CCC[C@]3(C)[C@@H]([C@H](C)C[C@H]4C[C@](C)(O)C(=O)N4Cc4cc(O)cc(O)c4)CC[C@@H]23)C[C@@H](O)C[C@@H]1O | 9.6 |  | inactive | inactive
C=C1/C(=C\C=C2/CCC[C@]3(C)[C@@H]([C@H](C)C[C@H]4C[C@@](C)(O)C(=O)N4Cc4cc(OC)cc(OC)c4)CC[C@@H]23)C[C@@H](O)C[C@@H]1O | 131 |  |  | 
C=C1/C(=C\C=C2/CCC[C@]3(C)[C@@H]([C@H](C)C[C@@H]4C[C@](C)(O)C(=O)N4Cc4cc(C(F)(F)F)cc(C(F)(F)F)c4)CC[C@@H]23)C[C@@H](O)C[C@@H]1O | < 1520 | inactive |  | 
C=C1/C(=C\C=C2/CCC[C@]3(C)[C@@H]([C@H](C)C[C@H]4C[C@@](C)(O)C(=O)N4CCc4cc(OC)cc(OC)c4)CC[C@@H]23)C[C@@H](O)C[C@@H]1O | < 1520 |  | inactive | 
C=C1/C(=C\C=C2/CCC[C@]3(C)[C@@H]([C@H](C)C[C@@H]4C[C@@](C)(O)C(=O)N4CCCc4cc(OC)cc(OC)c4)CC[C@@H]23)C[C@@H](O)C[C@@H]1O | < 1520 | inactive |  | 
C=C1/C(=C\C=C2/CCC[C@]3(C)[C@@H]([C@H](C)C[C@H]4C[C@](C)(O)C(=O)N4CCc4cc(C(F)(F)F)cc(C(F)(F)F)c4)CC[C@@H]23)C[C@@H](O)C[C@@H]1O | 42 | inactive |  | 
C=C1/C(=C\C=C2/CCC[C@]3(C)[C@@H]([C@H](C)C[C@@H]4C[C@](C)(O)C(=O)N4Cc4cc(OC)cc(OC)c4)CC[C@@H]23)C[C@@H](O)C[C@@H]1O | 60 |  |  | 
C=C1/C(=C\C=C2/CCC[C@]3(C)[C@@H]([C@H](C)C[C@@H]4C[C@](C)(O)C(=O)N4CCc4cc(C(F)(F)F)cc(C(F)(F)F)c4)CC[C@@H]23)C[C@@H](O)C[C@@H]1O | 757 | inactive |  | 
C=C1/C(=C\C=C2/CCC[C@]3(C)[C@@H]([C@H](C)C[C@H]4C[C@@](C)(O)C(=O)N4CCCc4cc(OC)cc(OC)c4)CC[C@@H]23)C[C@@H](O)C[C@@H]1O | < 1520 | inactive |  | 
C=C1/C(=C\C=C2/CCC[C@]3(C)[C@@H]([C@H](C)C[C@H]4C[C@@](C)(O)C(=O)N4Cc4cc(C(F)(F)F)cc(C(F)(F)F)c4)CC[C@@H]23)C[C@@H](O)C[C@@H]1O | < 1520 | inactive |  | 
C=C1/C(=C\C=C2/CCC[C@]3(C)[C@@H]([C@H](C)C[C@H]4C[C@](C)(O)C(=O)N4Cc4cc(OC)cc(OC)c4)CC[C@@H]23)C[C@@H](O)C[C@@H]1O | 1.9 |  |  | 
C=C1/C(=C\C=C2/CCC[C@]3(C)[C@@H]([C@H](C)C[C@@H]4C[C@](C)(O)C(=O)N4CCCc4cc(OC)cc(OC)c4)CC[C@@H]23)C[C@@H](O)C[C@@H]1O | < 1520 | inactive |  | 
C=C1/C(=C\C=C2/CCC[C@]3(C)[C@@H]([C@H](C)C[C@H]4C[C@](C)(O)C(=O)N4Cc4cc(OCCC)cc(OCCC)c4)CC[C@@H]23)C[C@@H](O)C[C@@H]1O | 11.9 |  |  | 
C=C1/C(=C\C=C2/CCC[C@]3(C)[C@@H]([C@H](C)C[C@@H]4C[C@](C)(O)C(=O)N4CCCc4cc(C(F)(F)F)cc(C(F)(F)F)c4)CC[C@@H]23)C[C@@H](O)C[C@@H]1O | < 5400 |  | inactive | 
C=C1/C(=C\C=C2/CCC[C@]3(C)[C@@H]([C@H](C)C[C@H]4C[C@](C)(O)C(=O)N4CCCc4cc(C(F)(F)F)cc(C(F)(F)F)c4)CC[C@@H]23)C[C@@H](O)C[C@@H]1O | 181 |  | inactive | 
C=C1/C(=C\C=C2/CCC[C@]3(C)[C@@H]([C@H](C)C[C@H]4C[C@@](C)(O)C(=O)N4CCc4cc(C(F)(F)F)cc(C(F)(F)F)c4)CC[C@@H]23)C[C@@H](O)C[C@@H]1O | 1180 | inactive |  | 
C=C1/C(=C\C=C2/CCC[C@]3(C)[C@@H]([C@H](C)C[C@H]4C[C@](C)(O)C(=O)N4Cc4ccccc4)CC[C@@H]23)C[C@@H](O)C[C@@H]1O | 36.4 |  |  | 
C=C1/C(=C\C=C2/CCC[C@]3(C)[C@@H]([C@H](C)C[C@H]4C[C@](C)(O)C(=O)N4Cc4cc(C(F)(F)F)cc(C(F)(F)F)c4)CC[C@@H]23)C[C@@H](O)C[C@@H]1O | 138 | inactive |  | 
C=C1/C(=C\C=C2/CCC[C@]3(C)[C@@H]([C@H](C)C[C@H]4C[C@](C)(O)C(=O)N4CCCc4cc(OC)cc(OC)c4)CC[C@@H]23)C[C@@H](O)C[C@@H]1O | 57 |  |  | 
C=C1/C(=C\C=C2/CCC[C@]3(C)[C@@H]([C@H](C)C[C@@H]4C[C@@](C)(O)C(=O)N4CCc4cc(OC)cc(OC)c4)CC[C@@H]23)C[C@@H](O)C[C@@H]1O | 284 |  | inactive | 
